Measurements from patent US8912359B2, “Bisbenzamidines for the treatment of pneumonia” (University of Cincinnati, priority 2003, dated 2014).
Converted amounts (≈) assume the structure as drawn. Like-named read-outs stand apart in the source and are kept apart here.

Assays:
Calf thymus DNA = assay: DNA Binding ΔTm, calf thymus
Poly (dA-dT) = assay: DNA Binding ΔTm, Poly (dA-dT)
Pneumocystis = Pneumocystis ATP detection assay; format: cell-based, P. carinii; conditions: for IC50: concentration reducing ATP content of Pneumocystis populations by 50% vs untreated controls, 48 hours exposure (Table 1 title); for Anti-Pneumocystis Activity: semi-qualitative scale from highly active to no activity, based on IC50
Text: An ATP assay system (Cushion, Chen et al., 1997; Chen & Cushion, 1994; Collins & Cushion, 2001) was used to evaluate bisbenzamidine analogues as potential therapeutic targets for treatment of pneumonia, particularly that caused by species in the genus Pneumocystis. […]. Development of these compounds could provide new and novel treatment choices for Pneumocystis pneumonia.
A series of novel bisbenzamidines linked by either a rigid (for instance, a phenylene diamide) or a flexible (for instance, a propyl diamide) core are described. Such compounds may be used for the treatment of infections, such as pneumonia and for instance, pneumonia caused by Pneumocystis.
The structure-activity relationships for the piperazine-linked bisbenzamidines and the toxicities of each compound in three different mammalian cell lines are shown in the following tables. Compounds are ranked in order of the lowest concentration necessary to reduce the ATP content of Pneumocystis populations by 50% (i.e., the IC50) compared to untreated control populations. Note that the IC50 values are expressed on a microgram per milliliter and micromolar basis. […];

[1] = test system: A549 lung epithelial cells
Text: (§1) Two transformed cell lines derived from two different organ systems and a primary cell line were chosen for evaluation of the relative toxicity of each compound. […] The Hep-G2 cell line is an epithelial cell line derived from a human hepatocellular carcinoma, and WI-38 is a human diploid cell line derived from normal embryonic (3 months of gestation) lung tissue.

WI-38 = assay: toxicity to WI-38 cell line (ATP system)
Text: as §1

SMILES	DNA Binding ΔTm Poly (dA-dT) (Poly (dA-dT)) [°C]	DNA Binding ΔTm Calf thymus (Calf thymus DNA) [°C]	IC50 (Pneumocystis) [µg/mL]	Anti-Pneumocystis Activity (Pneumocystis)	Anti-Pneumocystis Activity (Pneumocystis; listed as —C2H5)	toxicity in A549 line [1]	toxicity in WI-38 line (WI-38)	toxicity in A549 line ([1]; human)
N=C(N)c1ccc(OCCCCCOc2ccc(C(=N)N)cc2)cc1 [Pentamidine, reference compound]	20.6	11.1	0.3 (≈ 0.881 µM)	marked	–	–	–	–
CCCCCCCCCCNC(=N)c1ccc(N2CCN(c3ccc(C(=N)NCCCCCCCCCC)cc3)CC2)cc1 [compound 18, 4,4′-(1,4-piperazinediyl)bis(N-decylbenzenecarboximidamide)]	–	1.3	–	Marked	–	–	–	–
CCCCCCCCNC(=N)c1ccc(N2CCN(c3ccc(C(=N)NCCCCCCCC)cc3)CC2)cc1 [compound 11, 4,4′-(1,4-piperazinediyl)bis(N-octylbenzenecarboximidamide)]	–	4.2	–	Marked	–	–	–	–
CCCCCNC(=N)c1ccc(N2CCN(c3ccc(C(=N)NCCCCC)cc3)CC2)cc1 [compound 2, 4,4′-(1,4-piperazinediyl)bis(N-pentylbenzenecarboximidamide)]	22.5	16.9	–	Highly Active	–	–	–	–

More lines, main results first:

DNA Binding ΔTm Poly (dA-dT) (Poly (dA-dT)) [°C]	SMILES	DNA Binding ΔTm Calf thymus (Calf thymus DNA) [°C]	IC50 (Pneumocystis) [µg/mL]	Anti-Pneumocystis Activity (Pneumocystis)	Anti-Pneumocystis Activity (Pneumocystis; listed as —C2H5)	toxicity in A549 line [1]	toxicity in WI-38 line (WI-38)	toxicity in A549 line ([1]; human)
18.6	CCNC(=N)c1ccc(N2CCN(c3ccc(C(=N)NCC)cc3)CC2)cc1 [compound 16, 4,4′-(1,4-piperazinediyl)bis(N-ethylbenzenecarboximidamide)]	15.3	0.542 (≈ 1.43 µM)	marked	Marked	–	–	–
8.5	CCCCCCCNC(=N)c1ccc(N2CCN(c3ccc(C(=N)NCCCCCCC)cc3)CC2)cc1 [compound 5, 4,4′-(1,4-piperazinediyl)bis(N-heptylbenzenecarboximidamide)]	8.7	–	Very Marked	–	without toxicity	without toxicity	–
0.0	CCCCCCCCCCCCNC(=N)c1ccc(N2CCN(c3ccc(C(=N)NCCCCCCCCCCCC)cc3)CC2)cc1 [compound 15, 4,4′-(1,4-piperazinediyl)bis(N-dodecylbenzenecarboximidamide)]	0.6	–	Marked	–	–	–	not the A549 line
2.7	CCCCCCCCCNC(=N)c1ccc(N2CCN(c3ccc(C(=N)NCCCCCCCCC)cc3)CC2)cc1 [compound 14, 4,4′-(1,4-piperazinediyl)bis(N-nonylbenzenecarboximidamide)]	1.3	–	Marked	–	–	–	–
10.1	CCCCCCNC(=N)c1ccc(N2CCN(c3ccc(C(=N)NCCCCCC)cc3)CC2)cc1 [compound 3, 4,4′-(1,4-piperazinediyl)bis(N-hexylbenzenecarboximidamide)]	10.7	–	Highly Active	–	–	–	–
